For assay [1], the system named is GSK3α/β. The experiment in a line: Phosphorylation-specific blot for GSK3α/β, HCT 116 cells. It is filed as cell-based, human. Conditions: BIO 24 hours. On the procedure:
FIG. 11 illustrates that ERK/MAPK is identified as the major kinase that is responsible for the stability of cyclin D1 protein. Panels A-F: Pulse-chase analysis of cyclin D1 protein in HCT 116 cells after exposure to the MEK inhibitor U0126 (A-C) or the GSK3 inhibitor BIO (D-F). Exponentially growing HCT 116 cells were treated with either DMSO or 10 μM of U0126 (A-C) for 30 minutes, or DMSO or 5 μM of BIO (D-F) for 24 hours. Panels A and D: Cells were pulse-labeled with ^35S-methionine for 1 hour. Subsequently these cells were chased with cold methionine for the indicated times, and then lysed respectively. Cyclin D1 was immunoprecipitated and then analyzed with SDS-PAGE. Autoradiography was performed. Levels of metabolically labeled-cyclin D1 were estimated by quantitative scanning using the Quantity One (Bio-Rad) software and blotted on the graph to determine the half-life of cyclin D1. Panels B and E: Western blot analysis. The membrane was blotted with a cyclin D1 Thr286 phosphorylation specific (pThr286), total cyclin D1, a phosphorylation specific ERK, and total ERK antibodies (B), or a pThr286, cyclin D1, a GSKα/β phosphorylation specific, and GSK3β antibodies (E). Panels C and F: Cell cycle distributions were shown. […]
In contrast, no effect on phosphorylation status and stability of cyclin D1 protein through inhibition of GSK3α/β (FIG. 14, Panels D-F) were detected. […]

The subject of assay [2] is HCT 116 colon cancer cells. The experiment in a line: Flow-cytometric cell cycle analysis, HCT 116 cells. As to conditions: BIO 24 hours. It is filed as cell-based, human. The procedure:
Cell cycle analysis was carried out as described previously (Tetsu et al. (1999) Nature 398: 422-6; Tetsu et al. (2003) Cancer Cell 3: 233-45.

Assay [3] has as its system cyclin D1 Thr286 phosphorylation. The experiment in a line: Thr286 phosphorylation of transfected ΔD cyclin D1 after BIO, HCT 116 cells. Type of assay: cell-based, human. Conditions: 5 μM BIO 24 hours after transfection. The source says:
(§1) FIG. 9 illustrates that MAPK directly binds to cyclin D1 through the MAPK docking site (D-domain) within cyclin D1 and phosphorylates it specifically at Thr286. Panel A: p42 ERK2-associated GST-cyclin D1 (CD1) in vitro kinase assays (upper panels). Purified ERK2 phosphorylates cyclin D1 in vitro. Immuno-blotting (IB) analyses stained with a GST antibody (lower panels) were provided as a reference to show loading conditions of various forms of GST-CD1 fusion proteins. (A) GST alone (lane 1), GST-human (h) CD1 amino acids (A.A.) from 165 to 295 (165-295, lane 2), GST-human (h) or mouse (m) CD1 A.A. from 255 to 295 (255-295, lane 3 and 4) were used. Panel B: Western blot analysis following transfection of various forms of HA-tagged cyclin D1 expression vectors in both NIH 3T3 mouse fibroblast (left) and HCT 116 colon cancer (right) cells. In lane 5 and 10, Cells were treated with 5 μM of a highly specific GSK3β inhibitor BIO for further 24 hours following transfcetion of the ΔD CD1 mutant.
(§2) FIG. 11 illustrates that ERK/MAPK is identified as the major kinase that is responsible for the stability of cyclin D1 protein. […] Cyclin D1 was immunoprecipitated and then analyzed with SDS-PAGE. […] Levels of metabolically labeled-cyclin D1 were estimated by quantitative scanning using the Quantity One (Bio-Rad) software and blotted on the graph to determine the half-life of cyclin D1. […]

For assay [4] the test system is unchanged. The experiment in a line: Thr286 phosphorylation of transfected ΔD cyclin D1 after BIO, NIH 3T3 cells. It is filed as cell-based, mouse. Conditions: 5 μM BIO 24 hours after transfection.
Source text: as §1, §2

Assay [5] has as its system GSK3α/β. The experiment in a line: Phosphorylation-specific blot for GSK3α/β, SW480 cells. Type of assay: cell-based, human. As to conditions: 24 hours of treatment.

This is an account of results in patent US20070026431A1, “Modulation of MAPK-mediated phosphorylation and/or FBXW8-mediated ubiquitinylation of cyclin D1 in modulation of cellular proliferation” (priority 2005, published 2007).

SMILES strings stand for the structures. Entries after “also recorded” stand apart in the source; their conditions may differ.

On to `O=C1Nc2cc(Br)ccc2/C1=C1/Nc2ccccc2/C1=N\O` [BIO], for which the “phosphorylated forms of GSK3α/β” value in assay [1] and in assay [5] was “disappeared” throughout. Besides, in assay [2], the cell cycle profile result is listed as “without affecting”. Besides, the “phosphorylation status of cyclin D1 at Thr286 (ΔD mutant)” value in assay [3] is listed as “did not show any significant effect; also recorded: minimal effect”; in assay [4], “slight change; also recorded: reduction”.
